Source: US11905284B2, “5,7-dihydro-pyrrolo-pyridine derivatives” (PFIZER INC., priority 2016, dated 2024)

Target: T1, Human M4 receptors (Homo sapiens, UniProt P08173)
T1 construct: expressed in transfected cells; host or cells: HEK293 cells with Promega GloSensor cAMP technology, stably expressing hM4
T1 sequence (P08173 1-479): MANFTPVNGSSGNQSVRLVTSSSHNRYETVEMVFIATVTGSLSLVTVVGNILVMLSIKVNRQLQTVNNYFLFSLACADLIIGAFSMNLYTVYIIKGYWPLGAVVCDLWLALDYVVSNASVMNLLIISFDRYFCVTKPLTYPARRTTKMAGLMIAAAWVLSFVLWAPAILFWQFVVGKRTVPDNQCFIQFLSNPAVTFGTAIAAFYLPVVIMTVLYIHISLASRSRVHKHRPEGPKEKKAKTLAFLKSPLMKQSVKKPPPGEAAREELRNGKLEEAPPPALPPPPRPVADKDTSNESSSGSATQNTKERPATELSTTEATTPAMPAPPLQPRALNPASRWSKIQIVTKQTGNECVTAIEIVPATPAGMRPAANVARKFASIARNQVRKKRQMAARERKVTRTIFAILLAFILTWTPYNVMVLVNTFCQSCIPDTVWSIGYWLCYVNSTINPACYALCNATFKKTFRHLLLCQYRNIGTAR
Test: M4 PAM cAMP assay (GloSensor)
Assay type: cell-based
Conditions: for Emax: HEK293, read-out: M4 glosensor EC50 Mean Asymptote Maximum (%)
Method: The M4 PAM binding affinity for the compounds of the present invention was determined utilizing the following biological assay(s):
The M4 cAMP assay was designed to determine the potency and efficacy of muscarinic positive allosteric modulators (PAMs). Human M4 receptors were stably expressed in Human embryonic kidney (HEK293) cells expressed with the Promega GloSensor™ cAMP technology.
HEK293 GloSensor cells expressing hM4 cells were cultured in growth media containing DMEM with 10% FBS, 1% Penicillin/Streptomycin, 500 μg/mL G418, 200 μg/mL Hygomycin B, and 1% Glutamax. […] Plates were incubated at 37 degrees C. and 5% CO2 for use after 24 hours.
Compound Preparation for Agonist Screen:
Each compound was tested at 10 concentrations in duplicate per experiment. Compound plates are spotted with 0.2 μL/well agonist at 400 times the final assay concentration. Positive and negative controls for the compound alone agonist response was 10 μM acetylcholine (Sigma #A2661) and DMSO, respectively. EC20 of acetylcholine was also used to define PAM activities.
Promega GloSensor™ reagent (Promega #E1291) had previously been aliquotted. […] Stock solution was mixed. Culture media in cell plates was discarded, then replaced with 40 μL/well pre-warmed equilibration media, then incubated in the dark at room temperature for 2 hours. During the incubation, stimulation media containing agonist and EC20 acetylcholine was prepared. […] Compounds are now 5 times the final assay concentration. The plate was mixed using a plate agitator. At the end of the 2 hour GloSensor™ incubation, add 10 μL of the CO2-independent media containing agonist, EC20 acetylcholine and isoproterenol to the cell plate. Cell plate was then incubated for 10 minutes at room temperature, and then read using an EnVision plate reader (Perkin Elmer).
Data was exported from the EnVision plate reader. The percent effect for each well was determined using the mean values for the positive and negative controls on each plate for each read, specifically 100*(compound−negative control)/(positive control−negative control). Dose response curves were fitted to the compound percent effect data using a 4-parameter logistic fit model. Data was reported as EC50 and Emax, with the Emax as the maximum asymptote of the fitted dose response curve.

[1] = HEK293 GloSensor cells expressing hM4, with EC20 acetylcholine and isoproterenol, geometric mean of 2-4 determinations unless otherwise indicated

SMILES | Emax | EC50 [1] | M4 glosensor EC50 Mean Asymptote Maximum (%) (Emax = maximum asymptote of fitted dose response curve, HEK293 GloSensor cells expressing hM4, with EC20 acetylcholine and isoproterenol, geometric mean of 2-4 determinations unless otherwise indicated)
COCc1cc(C)c2c(n1)CN(C(=O)CC1CN(c3cccnc3)C1)C2 [Example 27, 1-[2-(methoxymethyl)-4-methyl-5,7-dihydro-6H-pyrrolo[3,4-b]pyridin-6-yl]-2-[1-(pyridin-3-yl)azetidin-3-yl]ethanone] | 94.4% | 16.8 nM | 
Cc1cc(C)c2c(n1)CN(C(=O)CC1CN(c3ccc(C(=O)N(C)C)cc3)C1)C2 [Example 70, 4-{3-[2-(2,4-dimethyl-5,7-dihydro-6H-pyrrolo[3,4-b]pyridin-6-yl)-2-oxoethyl]azetidin-1-yl}-N,N-dimethylbenzamide] | 95% | 184 nM | 
COCc1nc2c(c(C)c1C)CN(C(=O)CC1CN(c3cncnc3)C1)C2 [Example 40, 1-[2-(methoxymethyl)-3,4-dimethyl-5,7-dihydro-6H-pyrrolo[3,4-b]pyridin-6-yl]-2-[1-(pyrimidin-5-yl)azetidin-3-yl]ethanone] | 97.9% | 23.6 nM | 
COc1nc2c(c(C)c1Cl)CN(C(=O)CC1CN(c3cccnc3)C1)C2 [Example 22, 1-(3-chloro-2-methoxy-4-methyl-5,7-dihydro-6H-pyrrolo[3,4-b]pyridin-6-yl)-2-[1-(pyridin-3-yl)azetidin-3-yl]ethanone] | 109% | 4.82 nM | 
Cc1c(Cl)c(OC(F)F)nc2c1CN(C(=O)CC1CN(c3cncnc3)C1)C2 [Example 32, 1-[3-chloro-2-(difluoromethoxy)-4-methyl-5,7-dihydro-6H-pyrrolo[3,4-b]pyridin-6-yl]-2-[1-(pyrimidin-5-yl)azetidin-3-yl]ethanone] | 109% | 11 nM | 
Cc1cc(C)c2c(n1)CN(C(=O)CC1CN(c3cccnc3)C1)C2C (single isomer, unassigned) [Example 14, 2-[1-(Pyridin-3-yl)azetidin-3-yl]-1-(2,4,5-trimethyl-5,7-dihydro-6H-pyrrolo[3,4-b]pyridin-6-yl)ethanone] |  | 9080 nM | 62.5%
Cc1nc2c(c(C)c1Cl)CN(C(=O)CC1CN(c3cccnc3)C1)C2 [Example 13, 1-(3-Chloro-2,4-dimethyl-5,7-dihydro-6H-pyrrolo[3,4-b]pyridin-6-yl)-2-[1-(pyridin-3-yl)azetidin-3-yl]ethanone] | 101% | 2.04 nM | 
Cc1cc(C(F)F)nc2c1CN(C(=O)CC1CN(c3cncnc3)C1)C2 [Example 34, 1-[2-(difluoromethyl)-4-methyl-5,7-dihydro-6H-pyrrolo[3,4-b]pyridin-6-yl]-2-[1-(pyrimidin-5-yl)azetidin-3-yl]ethanone] | 86% | 18 nM | 
COc1nc2c(c(C)c1C)CN(C(=O)CC1CN(c3cncnc3)C1)C2 [Example 29, 1-(2-methoxy-3,4-dimethyl-5,7-dihydro-6H-pyrrolo[3,4-b]pyridin-6-yl)-2-[1-(pyrimidin-5-yl)azetidin-3-yl]ethanone] | 99.8% | 26.1 nM | 
COc1ccc(N2CC(CC(=O)N3Cc4nc(C)cc(C)c4C3)C2)cc1CC#N [Example 74, (5-{3-[2-(2,4-dimethyl-5,7-dihydro-6H-pyrrolo[3,4-b]pyridin-6-yl)-2-oxoethyl]azetidin-1-yl}-2-methoxyphenyl)acetonitrile] | 84.4% | 460 nM | 
Cc1cc(C)c2c(n1)CN(C(=O)CC1CN(c3ccnnc3)C1)C2 [Example 30, 1-(2,4-dimethyl-5,7-dihydro-6H-pyrrolo[3,4-b]pyridin-6-yl)-2-[1-(pyridazin-4-yl)azetidin-3-yl]ethanone] | 103% | 30.3 nM | 
Cc1nc2c(c(C)c1C)CN(C(=O)CC1CN(c3ncns3)C1)C2 [Example 5, 2-[1-(1,2,4-Thiadiazol-5-yl)azetidin-3-yl]-1-(2,3,4-trimethyl-5,7-dihydro-6H-pyrrolo[3,4-b]pyridin-6-yl)ethanone] | 98.2% | 8.88 nM | 
COc1ccc(C#N)cc1N1CC(CC(=O)N2Cc3nc(C)cc(C)c3C2)C1 [Example 69, 3-{3-[2-(2,4-dimethyl-5,7-dihydro-6H-pyrrolo[3,4-b]pyridin-6-yl)-2-oxoethyl]azetidin-1-yl}-4-methoxybenzonitrile] | 41.5% | 1360 nM | 
Cc1ccc([C@H]2C[C@@H]2CC(=O)N2Cc3nc(C(F)F)cc(C)c3C2)cn1 [Example 18, 1-[2-(difluoromethyl)-4-methyl-5,7-dihydro-6H-pyrrolo[3,4-b]pyridin-6-yl]-2-[(1R,2S)-2-(6-methylpyridin-3-yl)cyclopropyl]ethanone] | 89% | 37.7 nM | 
CNC(=O)c1ccc(N2CC(CC(=O)N3Cc4nc(C)cc(C)c4C3)C2)cc1 [Example 75, 4-{3-[2-(2,4-dimethyl-5,7-dihydro-6H-pyrrolo[3,4-b]pyridin-6-yl)-2-oxoethyl]azetidin-1-yl}-N-methylbenzamide] | 89.2% | 105 nM | 
Cc1ccc([C@@H]2C[C@H]2CC(=O)N2Cc3nc(C)cc(C)c3C2)cn1 [Example 16, 1-(2,4-Dimethyl-5,7-dihydro-6H-pyrrolo[3,4-b]pyridin-6-yl)-2-[(1S,2R)-2-(6-methylpyridin-3-yl)cyclopropyl]ethanone] |  | > 10000 nM | 
Cc1cc(C)c2c(n1)CN(C(=O)CC1CN(c3ccc4nc(C)cn4n3)C1)C2 [Example 43, 1-(2,4-dimethyl-5,7-dihydro-6H-pyrrolo[3,4-b]pyridin-6-yl)-2-[1-(2-methylimidazo[1,2-b]pyridazin-6-yl)azetidin-3-yl]ethanone] | 88.6% | 25.2 nM | 
COc1cc(C)c2c(n1)CN(C(=O)CC1CN(c3cccnc3)C1)C2 [Example 21, 1-(2-methoxy-4-methyl-5,7-dihydro-6H-pyrrolo[3,4-b]pyridin-6-yl)-2-[1-(pyridin-3-yl)azetidin-3-yl]ethanone] | 86.6% | 23.9 nM | 
COCc1nc2c(c(C)c1Cl)CN(C(=O)CC1CN(c3cccnc3)C1)C2 [Example 48, 1-[3-chloro-2-(methoxymethyl)-4-methyl-5,7-dihydro-6H-pyrrolo[3,4-b]pyridin-6-yl]-2-[1-(pyridin-3-yl)azetidin-3-yl]ethanone] | 105% | 2.99 nM | 
Cc1nc2c(c(C)c1Cl)CN(C(=O)CC1CN(c3ccnc(C(F)F)c3)C1)C2 [Example 12, 1-(3-Chloro-2,4-dimethyl-5,7-dihydro-6H-pyrrolo[3,4-b]pyridin-6-yl)-2-{1-[2-(difluoromethyl)pyridin-4-yl]azetidin-3-yl}ethanone] | 119% | 7.1 nM | 
Cc1c(C(F)F)nc2c(c1C)CN(C(=O)CC1CN(c3ccnc(C(F)F)c3)C1)C2 [Example 53, 1-[2-(difluoromethyl)-3,4-dimethyl-5,7-dihydro-6H-pyrrolo[3,4-b]pyridin-6-yl]-2-{1-[2-(difluoromethyl)pyridin-4-yl]azetidin-3-yl}ethanone] | 104% | 38.6 nM | 
Cc1nc2c(c(C)c1C)CN(C(=O)CC1CN(c3cccnc3)C1)C2 [Example 23, 2-[1-(pyridin-3-yl)azetidin-3-yl]-1-(2,3,4-trimethyl-5,7-dihydro-6H-pyrrolo[3,4-b]pyridin-6-yl)ethanone] | 92.2% | 6.23 nM | 
Cc1c(C(F)F)nc2c(c1C)CN(C(=O)CC1CN(c3ccnc(OC(F)F)c3)C1)C2 [Example 10, 2-{1-[2-(Difluoromethoxy)pyridin-4-yl]azetidin-3-yl}-1-[2-(difluoromethyl)-3,4-dimethyl-5,7-dihydro-6H-pyrrolo[3,4-b]pyridin-6-yl]ethanone] | 99.5% | 28.9 nM | 
COCc1nc2c(c(C)c1Cl)CN(C(=O)OC1CN(c3cccnc3)C1)C2 [Example 66, 1-(pyridin-3-yl)azetidin-3-yl 3-chloro-2-(methoxymethyl)-4-methyl-5,7-dihydro-6H-pyrrolo[3,4-b]pyridine-6-carboxylate] | 163% | 52.3 nM | 
